Here are results for 1 molecule from US20100261739A1, “Method of Treating Non-Small Cell Lung Cancer” (Myriad Pharmaceuticals, Inc., priority 2007, published 2010).

Where a name gives a salt, the structure may show the parent alone.

In the data set the test system is Subjects with Refractory Solid Tumors. As to the kind of experiment: Phase I clinical trial, open-label, dose-escalating, multiple-dose, weekly intravenous administration. Format: in vivo, human. Here is the method: An open-label, dose-escalating, multiple-dose study to define the safety, tolerability and phamacokinetics of weekly intravenous administration of (4-Methoxy-phenyl)-methyl-(2-methyl-quinazolin-4-yl)-amine hydrochloride was performed. A dosing schedule (each 4 week cycle) was performed for (4-Methoxy-phenyl)-methyl-(2-methyl-quinazolin-4-yl)-amine hydrochloride weekly for 3 weeks with no infusion on the fourth week of each cycle. Subjects with refractory solid tumors were enrolled. During Cycle 1, subjects were hospitalized during each infusion of (4-Methoxy-phenyl)-methyl-(2-methyl-quinazolin-4-yl)-amine hydrochloride and remained for observation and safety evaluation for approximately 24 hours following the end of the infusion. All subject had continuous telemetry for 2 hours prior to infusion, for 1-2 hour infusion and for 3 hours after the end of the infusion. Any clinically significant electrocardiographic (ECG) wave form abnormality was recorded and prolongation of the monitoring period extended at the discretion of the principal investigator.
Electrocardiograms were obtrained prior to starting the infusion and within 30 minutes of the end of infusion for each infusino of the first cycle. Electrocardiograms on Day 1 were obtained in triplicate 5 minutes apart.
Neurocognitive assessments were made by administration of the Mini-Mental State Examination (MMSE), the Hopkins Verbal Learning and timed Grooved Pegboard tests before administration of the intravenous infusion and approximately 24 hours after the infusion at each weekly administration of the first cycle.
On days 1, 8, and 15 of each cycle, vital signs were obtained prior to the first dose, at 15, 30, and 60 minutes after the initiation of the infusion, and at 0.5, 1, 1.5, 2, and 4 hours after the end of the intravenous infusion. Vital signs at all time points beyond the start of the intravenous infusion included heart rate, blood pressure and respirations. Temperature was measured at the end of the infusion and 4 hours later.
Individual subjects were allowed to continue on repeated weekly ×3 administrations every 28 days with no dose increase provided there was no unacceptable toxicity or disease progression.
Tumor response was evaluated by response evaluation criteria in solid tumors
(RECIST) criteria. To prevent sever hypersensitivity reactions due to Cremophor® EL, subjects were premedicated with oral dexamethasone (20 mg) administered approximately 12 and 6 hours before the intravenous infusion with (4-Methoxy-phenyl)-methyl-(2-methyl-quinazolin-4-yl)-amine hydrochloride, diphenhydramine (50 mg) or its equivalent administered intravenously 30-60 minutes before (4-Methoxy-phenyl)-methyl-(2-methyl-quinazolin-4-yl)-amine hydrochloride, and cimetidine (300 mg) or ranitidine (50 mg) administered intravenously 30-60 minutes before (4-Methoxy-phenyl)-methyl-(2-methyl-quinazolin-4-yl)-amine hydrochloride.

The mark [1] stands for this setting: at the administered doses (0.3-4.5 mg/m^2), weekly i.v.

On to `COc1ccc(N(C)c2nc(C)nc3ccccc23)cc1` [(4-Methoxy-phenyl)-methyl-(2-methyl-quinazolin-4-yl)-amine hydrochloride], for which, under setting [1], the cytotoxicity peripherally entry is on record as “no evidence from the results of the clinical trials of cytotoxicity peripherally” and the “effect on laboratory parameters (neutrophils, platelets, hemoglobin)” value was “no apparent effect”. The safety and tolerability result (human subjects at selected dosages, summary of Phase 1 studies) was “safe and well tolerated”. Moreover, the “disease progression (tumor response by RECIST criteria)” value (one patient in Cohort 10 (3.3 mg/m^2) with NSCLC that had metastasized to the CNS, weekly i.v. for 3 weeks of each 4 week cycle) is reported as “not shown to have disease progression”. In addition, the dose limiting toxicity entry (particularly in Cohorts 8 and 9 (3.9 and 4.5 mg/m^2)) was “vascular in nature, manifested by an acute coronary syndrome”. Also, the intratumor bleeding entry (weekly i.v., human subjects) was “incidences of intratumor bleeding”. Where the note is “weekly i.v., hydrochloride salt basis”, the “optimal dosage derived from the trials” value is recorded as ≤ 3.3 mg/m^2. Moreover, the safety and tolerability result (within dosage range 3.3 mg/m^2 or lower) was “safe and tolerated”.
